# Source: PubChem BioAssay AID248 (DTP/NCI, 2004)
# Toxic doses and inconclusive results are not listed.
# Tested on: L1210 leukemia ip in BDF1 mice, survival T/C
# Test: NCI In Vivo Anticancer Drug Screen. Data for tumor model L1210 Leukemia (intraperitoneal) in B6D2F1 (BDF1) mice
# Settings: endpoint: mean survival time, higher = longer survival
# How it was run: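 Transplantable tumor model; survival measured in treated vs vehicle control mice. Value = treated/control.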
# [1] = dose: 50.0 mg/kg/injection, schedule: Q01DX009 (ip), vehicle: saline
# [2] = dose: 100.0 mg/kg/injection, schedule: Q04DX003 (ip), vehicle: saline with Tween-80
# [3] = dose: 200.0 mg/kg/injection, schedule: Q04DX003 (ip), vehicle: saline with Tween-80
# [4] = dose: 100.0 mg/kg/injection, schedule: Q01DX009 (ip), vehicle: saline with Tween-80
# [5] = dose: 200.0 mg/kg/injection, schedule: Q01DX009 (ip), vehicle: saline with Tween-80
# [6] = dose: 100.0 mg/kg/injection, schedule: Q01DX009 (ip), vehicle: Klucel (hydroxypropylcellulose) (HPC)
# [7] = dose: 100.0 mg/kg/injection, schedule: Q04DX003 (ip), vehicle: Klucel (hydroxypropylcellulose) (HPC)
# [8] = dose: 200.0 mg/kg/injection, schedule: Q01DX009 (ip), vehicle: Klucel (hydroxypropylcellulose) (HPC)
# [9] = dose: 200.0 mg/kg/injection, schedule: Q04DX003 (ip), vehicle: Klucel (hydroxypropylcellulose) (HPC)
# [10] = dose: 400.0 mg/kg/injection, schedule: Q01DX009 (ip), vehicle: Klucel (hydroxypropylcellulose) (HPC)
# [11] = dose: 400.0 mg/kg/injection, schedule: Q04DX003 (ip), vehicle: Klucel (hydroxypropylcellulose) (HPC)
# [12] = dose: 400.0 mg/kg/injection, schedule: Q01DX001 (ip), vehicle: carboxymethylcellulose (CMC)
# [13] = dose: 400.0 mg/kg/injection, schedule: Q04DX003 (ip), vehicle: saline with Tween-80
smiles,measurement,setting,value
CCN(CC)CCN1C(=O)CN=C(c2ccccn2)c2cc(Cl)ccc21,T/C,[1],101 % of control
same,T/C,"dose: 100.0 mg/kg/injection, schedule: Q01DX009 (ip), vehicle: saline",104 % of control
same,T/C,[2],97 % of control
same,T/C,"dose: 200.0 mg/kg/injection, schedule: Q01DX009 (ip), vehicle: saline",112 % of control
same,T/C,[3],92 % of control
CCN(C(=O)c1cccc(C(=O)N(CC)c2ccccc2C)c1)c1ccccc1C,T/C,"dose: 50.0 mg/kg/injection, schedule: Q01DX009 (ip), vehicle: saline with Tween-80",97 % of control
same,T/C,[4],90 % of control
same,T/C,[2],99 % of control
same,T/C,[5],89 % of control
same,T/C,[3],90 % of control
Cc1c2ccccc2c(CNCCSCCCl)c2ccc3ccccc3c12,T/C,[1],119 % of control
same,T/C,"dose: 150.0 mg/kg/injection, schedule: Q01DX009 (ip), vehicle: saline",109 % of control
same,T/C,"dose: 167.0 mg/kg/injection, schedule: Q01DX009 (ip), vehicle: saline",94 % of control
CSc1ccc(OC(=O)Nc2ccc(Cl)c(Cl)c2)cc1C,T/C,[6],106 % of control
same,T/C,[7],88 % of control
same,T/C,[8],92 % of control
same,T/C,[9],93 % of control
same,T/C,[10],92 % of control
same,T/C,[11],88 % of control
CN(C)C=Nc1ccc(F)cc1,T/C,"dose: 50.0 mg/kg/injection, schedule: Q01DX001 (ip), vehicle: carboxymethylcellulose (CMC)",94 % of control
same,T/C,"dose: 100.0 mg/kg/injection, schedule: Q01DX001 (ip), vehicle: carboxymethylcellulose (CMC)",102 % of control
same,T/C,"dose: 200.0 mg/kg/injection, schedule: Q01DX001 (ip), vehicle: carboxymethylcellulose (CMC)",104 % of control
same,T/C,[12],105 % of control
Cc1cc2nc3c(=O)[nH]c(=O)nc-3n(CCN(CCCl)CCCl)c2cc1C,T/C,"dose: 42.0 mg/kg/injection, schedule: Q01DX015 (ip), vehicle: carboxymethylcellulose (CMC)",115 % of control
same,T/C,"dose: 72.0 mg/kg/injection, schedule: Q01DX015 (ip), vehicle: carboxymethylcellulose (CMC)",96 % of control
same,T/C,"dose: 120.0 mg/kg/injection, schedule: Q01DX015 (ip), vehicle: carboxymethylcellulose (CMC)",86 % of control
same,T/C,[12],152 % of control
same,T/C,"dose: 600.0 mg/kg/injection, schedule: Q01DX001 (ip), vehicle: carboxymethylcellulose (CMC)",103 % of control
S=C1NCc2ccccc2N1,T/C,"dose: 12.5 mg/kg/injection, schedule: Q04DX003 (ip), vehicle: Klucel (hydroxypropylcellulose) (HPC)",93 % of control
same,T/C,"dose: 25.0 mg/kg/injection, schedule: Q04DX003 (ip), vehicle: Klucel (hydroxypropylcellulose) (HPC)",95 % of control
same,T/C,"dose: 50.0 mg/kg/injection, schedule: Q04DX003 (ip), vehicle: Klucel (hydroxypropylcellulose) (HPC)",103 % of control
same,T/C,"dose: 100.0 mg/kg/injection, schedule: Q01DX001 (ip), vehicle: Klucel (hydroxypropylcellulose) (HPC)",102 % of control
C=CC1CCN(CCn2cnc3c(N)ncnc32)CC1,T/C,[2],97 % of control
same,T/C,[3],103 % of control
same,T/C,[13],97 % of control
COc1ccccc1NC(=O)c1ccco1,T/C,"dose: 12.5 mg/kg/injection, schedule: Q04DX002 (ip), vehicle: Klucel (hydroxypropylcellulose) (HPC)",102 % of control
same,T/C,"dose: 25.0 mg/kg/injection, schedule: Q04DX002 (ip), vehicle: Klucel (hydroxypropylcellulose) (HPC)",102 % of control
same,T/C,"dose: 50.0 mg/kg/injection, schedule: Q04DX002 (ip), vehicle: Klucel (hydroxypropylcellulose) (HPC)",97 % of control
same,T/C,"dose: 100.0 mg/kg/injection, schedule: Q04DX002 (ip), vehicle: Klucel (hydroxypropylcellulose) (HPC)",95 % of control
same,T/C,"dose: 200.0 mg/kg/injection, schedule: Q04DX002 (ip), vehicle: Klucel (hydroxypropylcellulose) (HPC)",106 % of control
same,T/C,"dose: 400.0 mg/kg/injection, schedule: Q04DX002 (ip), vehicle: Klucel (hydroxypropylcellulose) (HPC)",103 % of control
CO/C(=C\c1ccc(OC)cc1)C(=O)O,T/C,[6],93 % of control
same,T/C,[7],100 % of control
same,T/C,[8],90 % of control
same,T/C,[9],101 % of control
same,T/C,[10],93 % of control
same,T/C,[11],100 % of control
O=C1OC(=O)C2C3C=CC(C3=C(c3ccccc3)c3ccccc3)C12 (stereo not given),T/C,[6],92 % of control
same,T/C,[4],97 % of control
same,T/C,[7],92 % of control
same,T/C,[8],97 % of control
same,T/C,[5],100 % of control
same,T/C,[3],90 % of control
same,T/C,[11],87 % of control
same,T/C,[13],92 % of control
